One assay concerns AspH315–758. The arrangement: method as in PMID 32107312. The following applies: AspH315–758 (0.1 μM), hFX-CP101–119 as substrate; SPE-MS; 2OG or Fe(II); cited from earlier work.
Another assay relates to His6-JMJD6_1–362. The settings on record: MALDI-TOF assay, LUC7L2_267–278 as the substrate; cited from earlier work.
For assay [1], the system named is PHD2. Details: method as in PMID 18952043. The settings on record: PHD2 (1.0 nM), FRET assay, 2OG or Fe(II), cited from earlier work.
The target in assay [2] is T1, full-length His6-JMJD6 (Homo sapiens, UniProt Q6NYC1).
T1 construct: An enzyme mixture (10 μL) containing full-length His6-JMJD6 (5 μM; final concentration: 0.05 μM); made in house; host or cells: Escherichia coli BL21 (DE3), pET-28a(+) plasmid
The experiment in a line: SPE-MS kinetics of JMJD6 for O2. The assay is classed as biochemical. The following applies: for apparent Michaelis constant K^app m for O2: SPE-MS. As for the experimental part:
(§1) Recombinant human JMJD6 (full length with a N-terminal His6-tag) was produced in Escherichia coli BL21 (DE3) cells using a pET-28a(+) plasmid and purified by standard Ni(II)-affinity size-exclusion chromatography, as previously reported.[40] […] Purified JMJD6 was stored at −78 °C; fresh aliquots were used for all JMJD6 assays.
Assays to determine the kinetic parameters of JMJD6 for O2 were performed in 2 mL gas-tight glass vials (Sigma-Aldrich) in independent triplicates. 50 mM Tris buffer (pH 7.5; 0.95 mL) was incubated in a 2 mL gas-tight glass vial at 37 °C for 30 min with a fixed O2 concentration (in N2; specified in Fig S9, ESI ^†), adjusted using a mass flow controller. […] The JMJD6-catalysed reaction was performed at 37 °C at a fixed O2 concentration and was stopped after the reaction time specified (Fig. S9, ESI ^†) by the addition of 20%v/v aqueous formic acid (100 μL) and analysed by SPE-MS. The %-concentration of O2 in N2, adjusted with a mass flow controller, was converted into an O2 concentration [μM] by calibration using a standard (i.e., y[μM] = 9.026·x[%]).[100] Data were analysed by SPE-MS as described above to calculate apparent JMJD6 kinetic parameters for O2.

A further assay has as its system NO66_183–641. The arrangement: method as in PMID 34843649. The settings on record: NO66_183–641 (0.3 μM), RPL8_205–224 as substrate; SPE-MS; 2OG or Fe(II); cited from earlier work.
Assay [3] concerns KDM4C. Details: method as in PMID 21859681. The settings on record: KDM4C (0.5 μM), ARTAQTARK(me3)STGGIA as substrate; SPE-MS; cited from earlier work.
For assay [4], the target named is T1, full-length His6-JMJD6. The experiment in a line: SPE-MS kinetics of JMJD6-catalysed lysyl hydroxylation (2OG, Fe(II), LAA, BRD-derived peptides). The assay is classed as biochemical. The settings on record: 2OG or Fe(II) varied, BRD4_511–550 (2 μM) as substrate, 0.05 μM full-length His6-JMJD6, ambient temperature. On the procedure:
as §1
Peptides were used as 10 mM stock solutions in DMSO (Sigma-Aldrich; BioUltra grade).
Assay samples were aspirated under vacuum for 0.4 s, then loaded onto a C4 solid phase extraction (SPE) cartridge. After loading, the C4 SPE cartridge was washed with 0.1%v/v aqueous formic acid to remove non-volatile buffer salts (5 s, 1.5 mL min^−1). The peptide was eluted from the SPE cartridge with 0.1%v/v aqueous formic acid in 75/25v/v acetonitrile/water into the mass spectrometer (5 s, 1.6 mL min^−1) and the SPE cartridge re-equilibrated with 0.1%v/v aqueous formic acid (1 s, 1.25 mL min^−1).
Peaks corresponding to the m/z +5 charge states of the BRD-derived substrate peptide and the hydroxylated product peptides were extracted from the ion chromatogram and integrated using RapidFire Integrator 4.3.0 (Agilent). Peak area data were exported into Microsoft Excel and used to calculate the relative abundance of the mono-hydroxylated product peptide using the following equation: […]
The concentration of the mono-hydroxylated product peptide was calculated by multiplying the %-fraction of the mono-hydroxylated product peptide by the initial concentration of the substrate peptide employed in the assay. Initial reaction velocities were then calculated and fitted to a Michaelis–Menten plot using nonlinear regression (GraphPad Prism 5).

Assay [5] deals with PHD2. The settings on record: PHD2 (4 μM), cited from earlier work; for k cat: O2.
For assay [6], the system named is KDM4C. The settings on record: KDM4C (3 μM), H3_1–15K9me3 as substrate, oxygen consumption assay, cited from earlier work.
Assay [7] relates to AspH. The settings on record: AspH (0.1 μM), hFX-CP101–119 as substrate, cited from earlier work.
In assay [8] the test system is PHD2. The settings on record: PHD2 versus JMJD6.
Another assay deals with KDM4E. The settings on record: KDM4E (2.1 μM), H3_1–15K9me3 as substrate, oxygen consumption assay, cited from earlier work.
Assay [9] concerns AspH. The settings on record: AspH versus JMJD6.
The subject of assay [10] is phytanoyl-CoA dioxygenase (PHYH). The settings on record: PHYH (50 μM), isovaleryl-CoA as substrate, oxygen consumption assay, cited from earlier work.
In assay [11] the test system is KDM4A. The settings on record: KDM4A versus JMJD6.
The test system of another assay is FIH. The settings on record: FIH (5 μM), HIF-1α789–822 as substrate, cited from earlier work.
The subject of assay [12] is KDM4A. The following applies: KDM4A (1 μM), H3_1–15K9me3 as substrate; cited from earlier work.
Assay [13] concerns type I human collagen prolyl 4-hydroxylase (CP4H-I). The following applies: (Pro-Pro-Gly)10 as substrate, [14C]CO2 release; cited from earlier work.
In the next assay the test system is BBOX. Details: method as in PMID 25030770, PMID 24317009. The settings on record: BBOX (0.05 μM); 1H NMR turnover assay; cited from earlier work.
The subject of another assay is JMJD5. The arrangement: method as in PMID 37292060. The following applies: SPE-MS, cited from earlier work.
Where [14] appears, read: O2 varied, BRD4_511–550 (2 μM) as substrate, 0.05 μM full-length His6-JMJD6, 50 mM Tris pH 7.5, 37 °C, quenched after 60 or 90 s, mean ± SD n = 3.
[15] abbreviates: LAA 100 μM, 50 mM Tris pH 7.5, ~20 min, SPE-MS, mean ± SD n = 3.

The values that follow come from PMC11878239, “Biochemical investigations using mass spectrometry to monitor JMJD6-catalysed hydroxylation of multi-lysine containing bromodomain-derived substrates” (RSC Chemical Biology, 2025).

Values joined by “and” are separate entries in the source; they are usually repeats but may differ in a detail not shown here. Equal values may be shown once. Read-outs that look alike come from different tables or passages of the source. A value given as a limit tells only on which side of the number the result lay.

Turning to `O=C(O)CCC(=O)C(=O)O` [2OG, 2-oxoglutarate], the entries for the “k^app cat” value in the assay on AspH315–758 and in the assay with KDM4C [3] were 0.19 ± 0.03 s⁻¹ and 0.075 ± 0.001 s⁻¹, respectively. Further, in the assay on His6-JMJD6_1–362, the “K^app m for 2OG” value was approximately 31 µM. In addition, the entries for the “K^app m” value in the assay on PHD2 [1] (HIF-1α-derived biotin-[…] as substrate) and in the assay on NO66_183–641 were 0.35 ± 0.03 µM and 0.83 ± 0.09 µM, respectively. In addition, the “apparent Michaelis constant K^app m for O2” value on full-length His6-JMJD6 [2] (setting [14]) amounted to 74 ± 14 µM. Also, the “apparent Michaelis constant K^app m” value at full-length His6-JMJD6 [4] (setting [15]) came out at 23.3 ± 2.5 µM.
On to `O=O` [O2, dioxygen], for which the k cat in the assay on PHD2 [5] (HIF-1α395–413 as substrate) is 0.028 ± 0.001 s⁻¹; with PHD2 [5] (HIF-1α556–574 as substrate), 0.06 ± 0.01 s⁻¹; in the assay with KDM4C [6] (O2), 0.043 ± 0.001 s⁻¹; in the assay on AspH [7] (O2), 0.23 ± 0.04 s⁻¹; in the assay on KDM4E (O2) it was 0.067 ± 0.001 s⁻¹; in assay [10] (O2), 0.016 s⁻¹. Besides, the k cat in the assay on FIH (O2) was 0.56 ± 0.04 s⁻¹. Also, the “K m for O2” value in the assay with PHD2 [5] (HIF-1α395–413 as substrate) is more than 450 µM; in the assay on PHD2 [5] (HIF-1α556–574 as substrate), 460 ± 30 µM; in the assay with KDM4C [6], 158 ± 13 µM; in the assay on AspH [7], 426 ± 73 µM; with KDM4E, 197 ± 16 µM; in assay [10] it was 93 ± 43 µM. Further, the “K m for O2” value is 110 ± 30 µM with FIH, 173 ± 23 µM in the assay with KDM4A [12] and approximately 40 µM in assay [13]. In addition, the “K^app m (O2) of JMJD6: fold greater than CP4H-I” value on full-length His6-JMJD6 [2] (JMJD6/BRD4_511–550 versus CP4H-I (ref 26)) is given as approximately 2 fold. For the same compound, on full-length His6-JMJD6 [2] (JMJD6/BRD4_511–550 versus KDM6B (ref 96)), the “K^app m (O2) of JMJD6: fold greater than KDM6B” value is approximately 4 fold. Further, at full-length His6-JMJD6 [2] (setting [14]), the “apparent Michaelis constant K^app m for O2” value was 69.8 ± 11.4 µM and 74 ± 14 µM. The “apparent turnover number k^app cat” value on full-length His6-JMJD6 [2] (setting [14]) came to 0.12 ± 0.01 s⁻¹. The “specificity constant kcat/Km” value on full-length His6-JMJD6 [2] (O2 varied, BRD4_511–550 (2 μM) as substrate, 0.05 μM full-length His6-JMJD6, pH 7.5, 37 °C, n = 3) worked out at 1700 ± 400 M⁻¹ s⁻¹. Moreover, the “K^app m (O2): fold greater than that of JMJD6” value is given as approximately 6 fold with PHD2 [8], approximately 6 fold in the assay with AspH [9] and approximately 2 fold with KDM4A [11].
With `C[N+](C)(C)CCCC(=O)[O-]` [γ-butyrobetaine], in the assay with BBOX, the “K m (substrate)” value is 4.2 µM and the “k cat (substrate)” value was 0.83 s⁻¹.
As for RSP6_128–148: JMJD5 substrate, the “k cat/Km (substrate)” value in the assay with JMJD5 was 11500 ± 6300 M⁻¹ s⁻¹.
On to “ammonium iron(II) sulfate hexahydrate [Fe(II)]”, for which the figures for the “K^app m” value with AspH315–758, with PHD2 [1] (HIF-1α-derived biotin-DLEMLAPYIPMDDDFQL as substrate) and in the assay with NO66_183–641 were 1.42 ± 0.16 µM, 0.89 ± 0.07 µM and 0.014 ± 0.001 µM, respectively. The “k cat/Km” value is 130000 ± 30000 M⁻¹ s⁻¹ in the assay with AspH315–758 and 38500 ± 6200 M⁻¹ s⁻¹ in the assay with JMJD5 (RSP6_128–148 as substrate, 2OG or Fe(II)). Besides, the “k^app cat” value in the assay on AspH315–758 was 0.19 ± 0.03 s⁻¹. Further, the “apparent Michaelis constant K^app m” value on full-length His6-JMJD6 [4] (setting [15]) was 0.19 ± 0.02 µM. Also, the “apparent maximum velocity v^app max” value on full-length His6-JMJD6 [4] (setting [15]) stood at 3.6 ± 0.1 nM/s. Moreover, the “apparent turnover number k^app cat” value on full-length His6-JMJD6 [4] (pH 7.5, calculated from v^app max assuming active JMJD6 = total enzyme, n = 3) was 0.072 ± 0.002 s⁻¹. At full-length His6-JMJD6 [4] (pH 7.5, n = 3), the “specificity constant kcat/Km” value was 380000 ± 50000 M⁻¹ s⁻¹.
